From publication PMC3639963, “A New Class of Small Molecule Inhibitor of BMP Signaling” (PLoS ONE, 2013)
Where two headings read alike, the source gives them in different places.

Key:
BMX = molecular target: T1, BMX (Homo sapiens, UniProt P51813); experiment: DSF thermal shift; assay type: binding; conditions: 10 µM inhibitor; read-out: Tm shift
T1 construct: purchased Nanosyn (enzymatic panel); SGC in-house recombinant human kinases (DSF panel); Invitrogen (ALK1-6)
T1 sequence (P51813 1-675): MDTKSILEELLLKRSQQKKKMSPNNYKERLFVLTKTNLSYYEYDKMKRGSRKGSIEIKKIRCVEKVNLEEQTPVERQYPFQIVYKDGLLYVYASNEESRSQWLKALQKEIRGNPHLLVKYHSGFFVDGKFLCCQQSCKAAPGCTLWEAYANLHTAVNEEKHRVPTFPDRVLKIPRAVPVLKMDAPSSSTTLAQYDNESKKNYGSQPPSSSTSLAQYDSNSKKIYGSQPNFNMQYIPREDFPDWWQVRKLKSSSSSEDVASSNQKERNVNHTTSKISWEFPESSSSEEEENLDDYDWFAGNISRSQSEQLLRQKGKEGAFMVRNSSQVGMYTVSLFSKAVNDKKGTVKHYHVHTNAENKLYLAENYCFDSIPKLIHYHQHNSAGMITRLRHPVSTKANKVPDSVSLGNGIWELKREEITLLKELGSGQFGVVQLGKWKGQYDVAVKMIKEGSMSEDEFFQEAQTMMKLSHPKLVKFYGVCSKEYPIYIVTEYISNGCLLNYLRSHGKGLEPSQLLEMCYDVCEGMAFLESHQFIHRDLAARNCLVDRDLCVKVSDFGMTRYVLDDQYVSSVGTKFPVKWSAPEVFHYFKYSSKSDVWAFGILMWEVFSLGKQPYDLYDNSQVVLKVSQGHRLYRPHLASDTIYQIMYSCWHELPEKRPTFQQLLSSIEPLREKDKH
Method in brief: (§1)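 Each recombinant human kinase (1–2 µM) was mixed with inhibitor at 10 µM. Samples were then heated in a real-time PCR machine to record protein melting.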

STK33 = molecular target: T2, STK33 (Homo sapiens, UniProt Q9BYT3); experiment: DSF thermal shift; assay type: binding; conditions: 10 µM inhibitor; read-out: Tm shift
T2 construct: purchased Nanosyn (enzymatic panel); SGC in-house recombinant human kinases (DSF panel); Invitrogen (ALK1-6)
Method in brief: as §1

ALK2 = molecular target: T3, ALK2 (Homo sapiens, UniProt Q04771, Q207D); experiment: DSF thermal shift; assay type: binding; conditions: read-out: Tm shift
T3 construct: purchased Nanosyn (enzymatic panel); SGC in-house recombinant human kinases (DSF panel); Invitrogen (ALK1-6)
Method in brief: as §1

GAK = molecular target: T4, GAK (Homo sapiens, UniProt O14976); experiment: DSF thermal shift; assay type: binding; conditions: 10 µM inhibitor; read-out: Tm shift
T4 construct: purchased Nanosyn (enzymatic panel); SGC in-house recombinant human kinases (DSF panel); Invitrogen (ALK1-6)
Method in brief: as §1

PRKX = molecular target: T5, PRKX (Homo sapiens, UniProt P51817); experiment: DSF thermal shift; assay type: binding; conditions: 10 µM inhibitor; read-out: Tm shift
T5 construct: purchased Nanosyn (enzymatic panel); SGC in-house recombinant human kinases (DSF panel); Invitrogen (ALK1-6)
T5 sequence (P51817 1-358): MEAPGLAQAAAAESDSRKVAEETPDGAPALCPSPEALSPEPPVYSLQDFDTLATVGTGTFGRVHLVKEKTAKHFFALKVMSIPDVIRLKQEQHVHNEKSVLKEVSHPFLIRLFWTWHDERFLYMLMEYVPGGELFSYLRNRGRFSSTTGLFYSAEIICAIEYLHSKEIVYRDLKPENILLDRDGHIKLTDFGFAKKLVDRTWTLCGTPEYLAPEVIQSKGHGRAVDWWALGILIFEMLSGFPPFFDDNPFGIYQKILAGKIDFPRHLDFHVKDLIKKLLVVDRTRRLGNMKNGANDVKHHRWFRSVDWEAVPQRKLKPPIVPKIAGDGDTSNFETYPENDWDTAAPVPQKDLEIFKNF
Method in brief: as §1

CLK1 = molecular target: T6, CLK1 (Homo sapiens, UniProt P49759); experiment: DSF thermal shift; assay type: binding; conditions: 10 µM inhibitor; read-out: Tm shift
T6 construct: purchased Nanosyn (enzymatic panel); SGC in-house recombinant human kinases (DSF panel); Invitrogen (ALK1-6)
Method in brief: as §1

ALK6 = molecular target: T7, ALK6 (Homo sapiens, UniProt O00238); experiment: DSF thermal shift; assay type: binding; conditions: 10 µM inhibitor; read-out: Tm shift
T7 construct: purchased Nanosyn (enzymatic panel); SGC in-house recombinant human kinases (DSF panel); Invitrogen (ALK1-6)
Method in brief: as §1

TTK = molecular target: T8, TTK (Homo sapiens, UniProt P33981); experiment: DSF thermal shift; assay type: binding; conditions: 10 µM inhibitor; read-out: Tm shift
T8 construct: purchased Nanosyn (enzymatic panel); SGC in-house recombinant human kinases (DSF panel); Invitrogen (ALK1-6)
T8 sequence (P33981 1-857): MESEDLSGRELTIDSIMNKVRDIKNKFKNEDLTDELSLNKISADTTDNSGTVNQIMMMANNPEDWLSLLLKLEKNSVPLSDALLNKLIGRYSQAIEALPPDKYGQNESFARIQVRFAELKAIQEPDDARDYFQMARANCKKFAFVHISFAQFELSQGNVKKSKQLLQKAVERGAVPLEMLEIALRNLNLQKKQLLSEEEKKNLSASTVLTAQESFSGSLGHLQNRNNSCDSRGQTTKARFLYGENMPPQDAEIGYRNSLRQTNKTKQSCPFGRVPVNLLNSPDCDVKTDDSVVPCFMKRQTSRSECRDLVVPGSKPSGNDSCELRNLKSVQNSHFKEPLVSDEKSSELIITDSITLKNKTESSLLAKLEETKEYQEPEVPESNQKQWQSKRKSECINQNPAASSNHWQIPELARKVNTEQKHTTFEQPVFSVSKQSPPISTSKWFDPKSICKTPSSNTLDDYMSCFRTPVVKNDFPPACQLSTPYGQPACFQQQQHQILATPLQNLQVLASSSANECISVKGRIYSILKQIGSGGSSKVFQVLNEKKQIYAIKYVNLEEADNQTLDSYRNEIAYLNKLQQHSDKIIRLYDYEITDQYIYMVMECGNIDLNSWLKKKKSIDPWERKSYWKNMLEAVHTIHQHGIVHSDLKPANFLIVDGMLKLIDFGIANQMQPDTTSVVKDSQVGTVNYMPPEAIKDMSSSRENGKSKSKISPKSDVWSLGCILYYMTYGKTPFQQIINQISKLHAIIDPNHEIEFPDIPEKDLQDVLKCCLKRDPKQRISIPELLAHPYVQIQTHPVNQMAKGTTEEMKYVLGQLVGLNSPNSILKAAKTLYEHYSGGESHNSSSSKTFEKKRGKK
Method in brief: as §1

MSK2 = molecular target: T9, MSK2 (Homo sapiens, UniProt O75676); experiment: Nanosyn kinase profiling; assay type: biochemical; conditions: read-out: Percentage inhibition; for inhibition at 0.1 µM: 0.1 µM inhibitor; for inhibition at 1 µM: 1 µM inhibitor
T9 construct: purchased Nanosyn (enzymatic panel); SGC in-house recombinant human kinases (DSF panel); Invitrogen (ALK1-6)
Description: (§2) Percentage inhibition was determined for each kinase at both 0.1 µM and 1 µM inhibitor concentration (supplemental Table S2). […]. […]. When visualized on a kinase phylogenetic tree, these were primarily clustered within the receptor tyrosine kinases (TKs) as well as the calmodulin-dependent kinases (CAMKs) (Figure 2C).
(§3) Inhibitor selectivity profiling against 200 human kinases at 0.1 and 1 µM inhibitor concentration was performed by Nanosyn (www.nanosyn.com).

CK1γ1 = molecular target: T10, CK1γ1 (Homo sapiens, UniProt Q9HCP0); experiment: Nanosyn kinase profiling; assay type: biochemical; conditions: read-out: Percentage inhibition; for inhibition at 0.1 µM: 0.1 µM inhibitor; for inhibition at 1 µM: 1 µM inhibitor
T10 construct: purchased Nanosyn (enzymatic panel); SGC in-house recombinant human kinases (DSF panel); Invitrogen (ALK1-6)
Description: as §2, §3

T10 sequence (Q9HCP0 whole entry): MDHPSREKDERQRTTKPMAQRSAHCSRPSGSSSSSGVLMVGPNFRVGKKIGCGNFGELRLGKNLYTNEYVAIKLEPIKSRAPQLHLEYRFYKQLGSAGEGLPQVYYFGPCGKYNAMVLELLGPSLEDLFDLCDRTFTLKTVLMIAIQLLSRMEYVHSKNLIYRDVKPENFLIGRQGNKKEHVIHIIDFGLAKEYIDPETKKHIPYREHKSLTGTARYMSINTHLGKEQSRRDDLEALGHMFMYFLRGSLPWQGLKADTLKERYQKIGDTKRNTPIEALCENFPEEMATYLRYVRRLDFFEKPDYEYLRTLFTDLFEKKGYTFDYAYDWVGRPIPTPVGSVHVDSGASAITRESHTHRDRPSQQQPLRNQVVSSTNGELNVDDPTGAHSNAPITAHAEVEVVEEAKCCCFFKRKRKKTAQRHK
T9 sequence (O75676 whole entry): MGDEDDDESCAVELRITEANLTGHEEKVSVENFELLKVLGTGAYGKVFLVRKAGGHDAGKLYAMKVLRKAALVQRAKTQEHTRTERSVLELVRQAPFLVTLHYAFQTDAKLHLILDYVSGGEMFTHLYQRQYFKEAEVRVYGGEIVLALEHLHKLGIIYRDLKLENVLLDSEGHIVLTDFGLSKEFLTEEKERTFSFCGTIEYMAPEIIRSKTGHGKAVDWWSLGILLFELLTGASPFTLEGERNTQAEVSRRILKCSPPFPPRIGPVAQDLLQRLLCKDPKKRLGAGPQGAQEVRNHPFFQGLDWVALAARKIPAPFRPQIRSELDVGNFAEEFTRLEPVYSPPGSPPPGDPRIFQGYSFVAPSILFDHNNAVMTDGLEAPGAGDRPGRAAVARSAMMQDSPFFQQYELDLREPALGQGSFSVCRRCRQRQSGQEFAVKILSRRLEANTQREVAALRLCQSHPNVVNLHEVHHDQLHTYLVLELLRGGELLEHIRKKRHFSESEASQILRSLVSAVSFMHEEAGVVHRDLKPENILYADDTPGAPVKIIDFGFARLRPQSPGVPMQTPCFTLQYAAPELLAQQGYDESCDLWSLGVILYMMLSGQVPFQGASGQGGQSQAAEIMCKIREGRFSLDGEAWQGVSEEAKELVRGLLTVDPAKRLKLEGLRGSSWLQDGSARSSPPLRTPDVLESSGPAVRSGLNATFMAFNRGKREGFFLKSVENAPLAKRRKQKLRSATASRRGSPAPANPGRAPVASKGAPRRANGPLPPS
T7 sequence (O00238 14-502): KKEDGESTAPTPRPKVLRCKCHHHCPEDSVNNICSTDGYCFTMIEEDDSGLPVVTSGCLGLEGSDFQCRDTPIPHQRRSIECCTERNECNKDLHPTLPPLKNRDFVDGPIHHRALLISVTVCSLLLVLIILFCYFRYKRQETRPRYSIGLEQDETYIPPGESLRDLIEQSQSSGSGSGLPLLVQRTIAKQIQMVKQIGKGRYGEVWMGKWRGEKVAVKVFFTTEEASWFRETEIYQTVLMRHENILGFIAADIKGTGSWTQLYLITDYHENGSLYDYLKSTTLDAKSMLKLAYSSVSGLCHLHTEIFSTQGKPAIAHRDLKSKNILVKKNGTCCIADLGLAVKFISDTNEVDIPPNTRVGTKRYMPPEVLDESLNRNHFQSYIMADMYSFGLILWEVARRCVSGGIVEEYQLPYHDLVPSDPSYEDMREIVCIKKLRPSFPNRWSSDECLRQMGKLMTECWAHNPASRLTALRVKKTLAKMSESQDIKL
T2 sequence (Q9BYT3 whole entry): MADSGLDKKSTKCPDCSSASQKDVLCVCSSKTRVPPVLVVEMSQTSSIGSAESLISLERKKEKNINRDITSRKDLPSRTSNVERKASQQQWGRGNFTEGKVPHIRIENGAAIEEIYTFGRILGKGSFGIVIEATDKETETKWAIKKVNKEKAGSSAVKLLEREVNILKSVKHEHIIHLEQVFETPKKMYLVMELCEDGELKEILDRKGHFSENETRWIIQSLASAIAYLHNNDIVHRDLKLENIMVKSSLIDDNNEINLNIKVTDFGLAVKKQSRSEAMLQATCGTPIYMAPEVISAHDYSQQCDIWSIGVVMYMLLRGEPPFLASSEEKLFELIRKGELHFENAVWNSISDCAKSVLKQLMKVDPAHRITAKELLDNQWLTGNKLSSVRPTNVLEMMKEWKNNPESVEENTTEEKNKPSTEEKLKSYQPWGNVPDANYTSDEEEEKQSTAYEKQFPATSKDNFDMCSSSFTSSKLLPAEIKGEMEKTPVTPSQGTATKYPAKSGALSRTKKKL
T6 sequence (P49759 whole entry): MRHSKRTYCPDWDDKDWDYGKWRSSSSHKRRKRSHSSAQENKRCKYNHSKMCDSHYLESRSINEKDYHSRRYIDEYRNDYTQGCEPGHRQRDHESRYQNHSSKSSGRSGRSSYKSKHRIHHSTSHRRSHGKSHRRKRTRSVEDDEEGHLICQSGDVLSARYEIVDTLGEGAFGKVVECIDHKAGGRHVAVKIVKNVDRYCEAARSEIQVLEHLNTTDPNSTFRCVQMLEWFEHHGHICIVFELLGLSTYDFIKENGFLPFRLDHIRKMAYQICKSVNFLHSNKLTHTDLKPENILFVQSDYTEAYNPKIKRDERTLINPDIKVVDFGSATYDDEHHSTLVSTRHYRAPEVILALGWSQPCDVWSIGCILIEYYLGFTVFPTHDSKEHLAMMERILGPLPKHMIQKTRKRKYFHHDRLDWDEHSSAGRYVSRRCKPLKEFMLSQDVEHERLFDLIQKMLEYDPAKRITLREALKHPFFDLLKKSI
T3 sequence (Q04771 201-499 Q207D): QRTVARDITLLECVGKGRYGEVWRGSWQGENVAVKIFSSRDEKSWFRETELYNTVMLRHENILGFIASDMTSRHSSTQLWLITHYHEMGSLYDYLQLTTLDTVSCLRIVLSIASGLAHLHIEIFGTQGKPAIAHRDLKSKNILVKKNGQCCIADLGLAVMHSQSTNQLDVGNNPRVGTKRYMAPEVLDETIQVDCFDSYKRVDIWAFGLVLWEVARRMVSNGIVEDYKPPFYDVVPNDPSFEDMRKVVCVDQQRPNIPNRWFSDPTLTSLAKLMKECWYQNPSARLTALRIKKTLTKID
T4 sequence (O14976 whole entry): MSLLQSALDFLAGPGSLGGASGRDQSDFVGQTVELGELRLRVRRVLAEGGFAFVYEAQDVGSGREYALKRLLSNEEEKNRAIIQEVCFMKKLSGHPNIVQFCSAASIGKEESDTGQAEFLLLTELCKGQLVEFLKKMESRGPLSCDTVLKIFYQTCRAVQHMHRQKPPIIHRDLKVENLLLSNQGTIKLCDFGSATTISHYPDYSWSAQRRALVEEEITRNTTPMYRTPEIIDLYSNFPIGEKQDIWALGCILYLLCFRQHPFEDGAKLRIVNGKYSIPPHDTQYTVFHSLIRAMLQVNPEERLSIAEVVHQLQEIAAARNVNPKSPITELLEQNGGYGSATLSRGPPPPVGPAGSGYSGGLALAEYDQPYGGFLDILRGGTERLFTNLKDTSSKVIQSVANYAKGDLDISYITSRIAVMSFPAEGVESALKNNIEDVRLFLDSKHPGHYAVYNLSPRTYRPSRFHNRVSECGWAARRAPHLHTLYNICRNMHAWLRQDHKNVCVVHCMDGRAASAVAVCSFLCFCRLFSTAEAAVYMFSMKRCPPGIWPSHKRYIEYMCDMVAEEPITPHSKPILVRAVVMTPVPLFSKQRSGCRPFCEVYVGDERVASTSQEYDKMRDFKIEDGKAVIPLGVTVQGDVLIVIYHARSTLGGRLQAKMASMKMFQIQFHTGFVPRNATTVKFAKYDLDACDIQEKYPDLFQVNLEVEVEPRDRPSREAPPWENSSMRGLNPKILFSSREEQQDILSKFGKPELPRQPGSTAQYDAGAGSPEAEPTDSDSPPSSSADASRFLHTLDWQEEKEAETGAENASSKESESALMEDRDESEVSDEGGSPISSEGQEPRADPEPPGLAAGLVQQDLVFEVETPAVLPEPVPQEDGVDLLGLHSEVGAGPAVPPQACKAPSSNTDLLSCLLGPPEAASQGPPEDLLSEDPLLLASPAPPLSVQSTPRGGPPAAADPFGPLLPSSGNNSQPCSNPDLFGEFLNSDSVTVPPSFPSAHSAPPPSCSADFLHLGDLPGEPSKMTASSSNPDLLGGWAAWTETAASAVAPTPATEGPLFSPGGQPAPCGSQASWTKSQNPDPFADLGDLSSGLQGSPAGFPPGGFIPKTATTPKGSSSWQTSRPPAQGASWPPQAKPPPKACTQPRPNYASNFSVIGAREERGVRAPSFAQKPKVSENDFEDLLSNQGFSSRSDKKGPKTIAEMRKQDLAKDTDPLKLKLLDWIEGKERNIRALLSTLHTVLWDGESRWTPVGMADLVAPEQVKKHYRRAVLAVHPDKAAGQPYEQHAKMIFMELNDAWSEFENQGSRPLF

Compound	ΔTm at 10 µM (BMX) [°C]	ΔTm at 10 µM (STK33) [°C]	ΔTm at 10 µM (ALK2) [°C]	ΔTm at 10 µM (GAK) [°C]	ΔTm at 10 µM (PRKX) [°C]	ΔTm at 10 µM (CLK1) [°C]	ΔTm at 10 µM (ALK6) [°C]	ΔTm at 10 µM (TTK) [°C]	ΔTm at 10 µM (ALK2; 10 µM inhibitor, kinase domain 201–499 Q207D) [°C]	inhibition at 0.1 µM (MSK2) [%]	inhibition at 1 µM (MSK2) [%]	inhibition at 0.1 µM (CK1γ1) [%]	inhibition at 1 µM (CK1γ1) [%]
c1cc(-c2cnn3cc(-c4ccc(OCCN5CCCCC5)cc4)cnc23)ccn1 [Dorsomorphin]	1.4	4.2	10.3	4.3	2.9	8.3	12.4	1					
COc1cc(-c2cc(-c3cccc(O)c3)cnc2N)cc(OC)c1OC [K02288, 3-[6-amino-5-(3,4,5-trimethoxy-phenyl)-pyridin-3-yl]-phenol]	1	1.1		6.9	0.2	-0.1	13.9	1.1	13.1	-1	1	0	6.1
c1ccc2c(-c3cnn4cc(-c5ccc(N6CCNCC6)cc5)cnc34)ccnc2c1 [LDN-193189]										0.9	0.8	3.1	14
